Data taken from patent publication US5476856A, “Treatment of PAF and histamine-mediated diseases with 8-chloro-11-[1-[(5-methyl-3-pyridyl)methyl]-4-piperidyliden]-6,11-dihydr o-5H-benzo[5,6]cyclohepta[1,2-b]pyridine” (J. Uriach & Cia. S.A., priority 1992, dated 1995).
Where a name gives a salt, the structure may show the parent alone.

Tests used:
[1] = test system: hypotension induced by PAF; test: Inhibition of the hypotensive effect induced by PAF in normotense rats (Test 2); parameters: species or system Sprage Dawley rats; conditions: Rattus norvegicus; iv, 3 min before PAF 0.5 mcg/Kg i.v.; 50% inhibition of hypotension; read-out: PAF antagonism in vivo, Test 2 Art. p. ID50
Method: Male Sprage Dawley rats (b.w. 180-220 g) anesthetized with sodium pentobarbital (50 mg/Kg, i.p. 1 mL/100 g) are used. In order to measure the average arterial pressure, a polyethylene catheter is introduced into the carotid artery. The arterial pressure is recorded with the help of a transducer connected with a R611 Beckman polygraph. The test compounds are administered through the femoral vein 3 min. before the injection of PAF (0.5 mcg/Kg, i.v.).

[2] = test system: histamine-induced contraction of guinea-pig ileum (AntiH1); test: Antihistamine activity in guinea-pig ileum (Test 4, AntiH1 act.); format: cell-based, Dunkin-Hartley guinea pigs; conditions: for IC50: Cavia porcellus, histamine 5×10^-7 M, 5 min preincubation, read-out: Antihistaminic activity in vitro, Test 4 AntiH1 act. ileum IC50; for IC50 / antihistamine activity compared with compounds 11 and 12-14, in words / antihistamine potency in words: guinea-pig ileum
Method: This test was performed according to the method of Magnus. Male Dunkin-Hartley guinea pigs (b.w. 300-350 g), fasted overnight, were used. Animals were stunned, the abdomen was opened and 4 cm long ileum sections were cut. The sections were placed in a Petri dish containing Tyrode's solution at 37° C. and continuously bubbled with carbogen. The ileum fragments were washed with Tyrode's solution and then were transferred to an organ bath. Ileum contraction was measured using an isometric transducer. The initial load was 1 g. After a stabilization period of 20 min in which the organ is immersed in Tyrode's solution at 37° C. continuously bubbled with carbogen, non cumulative stimuli with submaximal doses of histamine (5×10^-7 M) were given. The contraction in absence or presence (5 min. preincubation time) of the test compounds was recorded.

[3] = test system: mortality induced by PAF; test: Mortality induced by PAF in mice (p.o.) (Test 3); format: in vivo, Swiss mice; conditions: for ED50: Mus musculus, 2 h, po, 1 h before 100 mcg/kg PAF-C18 and 1 mg/kg propanolol, 50% inhibition of mortality, read-out: PAF antagonism in vivo, Test 3 Mort. ID50
Method: This test was performed according to the procedure described by Young et al. (Prostaglandins, 1985, 30, 545-551). Groups of 10 Swiss mice weighing from 22 to 26 g were used. 100 mcg/kg of PAF-C18 and 1 mg/kg of propanolol were administered through a lateral tail vein 1 h after the oral administration of the compounds to be tested (0.2 mL/10 g). Animals were examined 2 h after the injection of PAF. The percentage of the inhibition of the mortality induced by PAF was determined for all test compounds in comparison with the control group. The results are expressed as ID50 values, that is to say, the amount of compound by weight of animal (dose) needed to inhibit the mortality induced by PAF in a 50%.

[4] = test system: platelet aggregation induced by PAF; test: Inhibition of platelet aggregation induced by PAF (Test 1); format: cell-based, New Zealand albino rabbits; conditions: Oryctolagus cuniculus; rabbit platelet rich plasma; PAF (C18) 16 nM final; read-out: PAF antagonism in vitro, Test 1 Plat. aggreg. IC50
Method: The platelet rich plasma (PRP) is prepared by blood centrifugation at 250×g for 10 min. at 4° C. and it is diluted with platelet poor plasma (PPP) obtained by additional centrifugation at 3000×g for 10 min. The amount of platelets is adjusted to […].

SMILES: Clc1ccc2c(c1)CCc1cccnc1C2=C1CCN(Cc2cccnc2)CC1 [Compound 1, 8-chloro-11-(1-(3-pyridylmethyl)-4-piperidyliden)-6,11-dihydro-5H-benzo[5,6]cyclohepta[1,2-b]pyridine]
- ED50 [1]: > 5 mg/kg
- IC50 [2]: 160 nM
- ED50 [3]: 30 mg/kg
- IC50 [4]: 4000 nM

SMILES: Cc1ccc(CN2CCC(=C3c4ccc(Cl)cc4CCc4cccnc43)CC2)cn1 [Compound 2, 8-chloro-11-(1-[(6-methyl-3-pyridyl)metyl]-4-piperidyliden)-6,11-dihydro-5H-benzo [5,6]cyclohepta[1,2-]pyridine]
- ED50 [1]: > 5 mg/kg
- IC50 [2]: 37 nM
- antihistamine activity compared with compounds 11 and 12-14, in words [2]: stronger activity than the 4-pyridine 11 and the compounds 12-14
- antihistamine potency in words [2]: potent antihistamines
- ED50 [3]: 30 mg/kg
- IC50 [4]: 9000 nM

SMILES: Cc1ncccc1CN1CCC(=C2c3ccc(Cl)cc3CCc3cccnc32)CC1 [Compound 3, 8-chloro-11-(1-[(2-methyl-3-pyridyl)methyl]-4-piperidyliden)-6,11-dihydro-5H-benzo [5,6]cyclohepta[1,2-b]pyridine]
- ED50 [1]: > 5 mg/kg
- IC50 [2]: 270 nM
- ED50 [3]: > 30 mg/kg
- IC50 [4]: 13000 nM

SMILES: Cc1cncc(CN2CCC(=C3c4ccc(Cl)cc4CCc4cccnc43)CC2)c1 [Compound 4, 8-chloro-11-[1-[(5-methyl-3-pyridyl)methyl]-4-piperidyliden]-6,11-dihydro-5H-benzo[5,6]cyclohepta[1,2-b]pyridine]
- ED50 [1]: 0.44 mg/kg
- IC50 [2]: 4.3 nM
- antihistamine activity compared with compounds 11 and 12-14, in words [2]: stronger activity than the 4-pyridine 11 and the compounds 12-14
- antihistamine potency in words [2]: potent antihistamines
- antihistaminic potency relative to the 2-methyl derivative 3 ([2]; more potent than compound 3): ~100 fold
- antihistaminic potency relative to compound 11 ([2]; more potent than compound 11): 20 fold
- antihistaminic potency relative to the 6-methyl and 4-methyl derivatives 2 and 5 ([2]; more potent than compounds 2 and 5): 10 fold
- ED50 [3]: 1.9 mg/kg
- activity in the PAF-induced mortality test, in words ([3]; oral administration): strong activity
- activity in the PAF-induced mortality test relative to all the other tested compounds ([3]; oral, superior to all the other tested compounds): ≥ 10 fold
- IC50 [4]: 3200 nM

SMILES: Cc1ccncc1CN1CCC(=C2c3ccc(Cl)cc3CCc3cccnc32)CC1 [Compound 5, 8-chloro-11-(1-[(4-methyl-3-pyridyl)methyl]-4-piperidyliden)-6,11-dihydro-5H -benzo[5.6]cyclohepta[1,2]pyridine]
- ED50 [1]: > 5 mg/kg
- IC50 [2]: 35 nM
- antihistamine activity compared with compounds 11 and 12-14, in words [2]: stronger activity than the 4-pyridine 11 and the compounds 12-14
- antihistamine potency in words [2]: potent antihistamines
- ED50 [3]: 10 to 30 mg/kg
- IC50 [4]: 15000 nM

SMILES: Clc1ccc2c(c1)CCc1cccnc1C2=C1CCN(Cc2cccnc2Cl)CC1 [Compound 6, 8-chloro-11-(1-[(2-chloro-3-pyridyl)methyl]-4-piperidyliden)-6,11-dihydro-5H -benzo[5,6]cyclohepta[1,2-b]pyridine]
- ED50 [1]: > 5 mg/kg
- IC50 [2]: 350 nM
- ED50 [3]: > 30 mg/kg
- IC50 [4]: > 100000 nM

SMILES: Clc1ccc2c(c1)CCc1cccnc1C2=C1CCN(Cc2ccc(Cl)nc2)CC1 [Compound 7, 8-chloro-11-(1-[(6-chloro-3-pyridyl)methyl]-4-piperidyliden)-6,11-dihydro-5H -benzo[5,6]cyclohepta[1,2-b]pyridine]
- ED50 [1]: > 5 mg/kg
- ED50 [3]: 20 to 30 mg/kg
- IC50 [4]: > 100000 nM

SMILES: Clc1ccc2c(c1)CCc1cccnc1C2=C1CCN(Cc2cncc(Br)c2)CC1 [Compound 8, 8-chloro-11-(1-[(3-bromo-5-pyridyl)methyl]-4-piperidyliden)-6,11-dihydro-5H -benzo[5,6]cyclohepta[1,2-b]pyridine, trihydrochloride]
- ED50 [1]: > 5 mg/kg
- IC50 [2]: 280 nM
- ED50 [3]: < 30 mg/kg
- IC50 [4]: 720 nM

SMILES: COc1ccc(CN2CCC(=C3c4ccc(Cl)cc4CCc4cccnc43)CC2)cn1 [Compound 9, 8-chloro-11-(1-[(6-methoxy-3-pyridyl)methyl]-4-piperidyliden)-6,11-dihydro-5H -benzo[5,6]cyclohepta[1,2-b]pyridine]
- IC50 [2]: 380 nM
- IC50 [4]: 37000 nM

SMILES: Clc1ccc2c(c1)CCc1cccnc1C2=C1CCN(Cc2ccncc2)CC1 [Compound 11, reference compound]
- ED50 [1]: > 5 mg/kg
- IC50 [2]: 94 nM
- ED50 [3]: 30 mg/kg
- IC50 [4]: 1800 nM

SMILES: CC(=O)N1CCC(=C2c3ccc(Cl)cc3CCc3cccnc32)CC1 [Compound 12, reference compound]
- ED50 [1]: 2 mg/kg
- IC50 [2]: 100 nM
- ED50 [3]: 31 mg/kg
- IC50 [4]: 840 nM

SMILES: O=C(c1cc[n+]([O-])cc1)N1CCC(=C2c3ccc(Cl)cc3CCc3cccnc32)CC1 [Compound 13, reference compound]
- ED50 [1]: 1.9 mg/kg
- IC50 [2]: 210 nM
- ED50 [3]: > 30 mg/kg
- IC50 [4]: 220 nM

SMILES: CCOC(=O)N1CCC(=C2c3ccc(Cl)cc3CCc3cccnc32)CC1 [Compound 14, reference compound]
- ED50 [1]: > 5 mg/kg
- ED50 [3]: > 30 mg/kg
